According to the supplement of paper PMC12463676, “Small-molecule dissolution of stress granules by redox modulation benefits ALS models” (Nature Chemical Biology, 2025):

Key:
lipoamide = compound: NC(=O)CCCCC1CCSS1 [lipoamide]; assay: thermal stability z-score vs DMSO; higher = more thermally stabilized by treatment; conditions: HeLa, lipoamide concentration 100 µM
Procedure: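 Cellular thermal proteome profiling in HeLa cells. Cells were treated with 100 µM lipoamide for 1 h, with or without 1 mM arsenate for a further 1 h, then heated to ten temperatures (37-66.3 °C), and soluble protein was quantified by TMT mass spectrometry relative to 0.1% DMSO controls. The thermal stability score (sum of log2 fold changes minus the abundance score) was transformed to a z-score; mean of n = 3 experiments.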

potassium arsenate = compound: O=[As]([O-])(O)O.[K+] [potassium arsenate]; assay: as above; conditions: HeLa; arsenate concentration 1 mM
Procedure: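 Cellular thermal proteome profiling in HeLa cells treated with 1 mM arsenate for 1 h (DMSO pretreatment), heated to ten temperatures (37-66.3 °C). Soluble protein was quantified by TMT mass spectrometry relative to DMSO controls; the thermal stability score was transformed to a z-score; mean of n = 3 experiments.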

[1] = arsenate co-treatment: 1 mM arsenate 1 h
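Further: each temperature applied for 3 min, abundance score taken as mean log2 fold change at the two lowest temperatures, z-score obtained by mean subtraction and division by SD.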

UniProt Q8TDM6, sequence (Q8TDM6 whole entry): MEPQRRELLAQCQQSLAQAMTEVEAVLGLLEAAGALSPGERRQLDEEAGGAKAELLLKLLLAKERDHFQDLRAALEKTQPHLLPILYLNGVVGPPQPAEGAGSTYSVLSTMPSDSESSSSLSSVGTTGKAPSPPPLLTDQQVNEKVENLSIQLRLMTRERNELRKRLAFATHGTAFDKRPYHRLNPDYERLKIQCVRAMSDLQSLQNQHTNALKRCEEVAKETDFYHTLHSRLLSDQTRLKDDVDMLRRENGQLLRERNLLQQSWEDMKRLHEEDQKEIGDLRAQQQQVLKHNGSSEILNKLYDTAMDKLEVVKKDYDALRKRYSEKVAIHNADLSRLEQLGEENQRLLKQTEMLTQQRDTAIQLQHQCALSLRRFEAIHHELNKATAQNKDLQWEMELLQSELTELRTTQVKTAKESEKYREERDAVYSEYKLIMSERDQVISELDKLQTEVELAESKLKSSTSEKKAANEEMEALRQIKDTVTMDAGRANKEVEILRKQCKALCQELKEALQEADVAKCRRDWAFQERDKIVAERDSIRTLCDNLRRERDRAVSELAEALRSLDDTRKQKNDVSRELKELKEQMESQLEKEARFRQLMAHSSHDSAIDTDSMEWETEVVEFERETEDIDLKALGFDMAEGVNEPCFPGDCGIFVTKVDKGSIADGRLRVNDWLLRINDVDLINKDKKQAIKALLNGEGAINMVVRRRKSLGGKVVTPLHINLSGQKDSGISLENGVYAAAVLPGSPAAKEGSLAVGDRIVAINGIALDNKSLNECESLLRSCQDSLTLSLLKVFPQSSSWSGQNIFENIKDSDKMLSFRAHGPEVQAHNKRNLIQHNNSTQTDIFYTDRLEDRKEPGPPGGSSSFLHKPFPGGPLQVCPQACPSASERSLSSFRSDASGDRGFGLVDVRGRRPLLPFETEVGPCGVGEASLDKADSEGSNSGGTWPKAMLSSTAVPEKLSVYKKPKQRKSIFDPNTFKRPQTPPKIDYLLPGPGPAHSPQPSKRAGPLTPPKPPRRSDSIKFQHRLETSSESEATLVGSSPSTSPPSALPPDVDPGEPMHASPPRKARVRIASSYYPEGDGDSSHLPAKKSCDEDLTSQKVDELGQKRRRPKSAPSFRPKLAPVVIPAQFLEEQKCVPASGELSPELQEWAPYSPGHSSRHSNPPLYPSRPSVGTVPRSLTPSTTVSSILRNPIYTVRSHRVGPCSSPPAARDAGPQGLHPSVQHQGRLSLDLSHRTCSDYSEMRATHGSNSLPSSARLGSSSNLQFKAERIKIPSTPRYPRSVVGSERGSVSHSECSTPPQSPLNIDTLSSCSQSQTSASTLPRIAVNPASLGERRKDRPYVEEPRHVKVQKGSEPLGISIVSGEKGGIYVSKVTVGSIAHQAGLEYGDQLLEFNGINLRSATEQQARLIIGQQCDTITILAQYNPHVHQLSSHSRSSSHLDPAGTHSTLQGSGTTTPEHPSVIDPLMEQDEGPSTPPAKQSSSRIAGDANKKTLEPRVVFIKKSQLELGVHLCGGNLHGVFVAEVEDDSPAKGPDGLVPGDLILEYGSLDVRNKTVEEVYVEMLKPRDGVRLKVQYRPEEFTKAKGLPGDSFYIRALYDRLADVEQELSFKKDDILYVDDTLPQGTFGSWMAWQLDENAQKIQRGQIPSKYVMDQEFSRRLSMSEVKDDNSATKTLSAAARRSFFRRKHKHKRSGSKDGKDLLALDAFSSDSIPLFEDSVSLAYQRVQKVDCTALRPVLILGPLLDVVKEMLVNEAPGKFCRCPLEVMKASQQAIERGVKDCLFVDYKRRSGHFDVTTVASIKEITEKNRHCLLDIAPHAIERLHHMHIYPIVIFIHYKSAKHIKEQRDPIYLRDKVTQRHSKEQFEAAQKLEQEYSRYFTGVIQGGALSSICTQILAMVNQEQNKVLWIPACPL
UniProt Q9UDY4, sequence (Q9UDY4 whole entry): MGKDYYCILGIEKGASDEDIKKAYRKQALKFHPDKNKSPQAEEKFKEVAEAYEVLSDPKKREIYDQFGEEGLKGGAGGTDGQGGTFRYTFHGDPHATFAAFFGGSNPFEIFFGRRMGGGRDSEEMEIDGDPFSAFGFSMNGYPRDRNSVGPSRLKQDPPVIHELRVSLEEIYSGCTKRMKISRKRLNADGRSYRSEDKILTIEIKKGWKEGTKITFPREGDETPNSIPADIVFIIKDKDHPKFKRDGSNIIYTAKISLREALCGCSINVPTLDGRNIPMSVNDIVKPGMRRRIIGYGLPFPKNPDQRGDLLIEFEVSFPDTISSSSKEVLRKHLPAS
UniProt Q9Y2H0, sequence (Q9Y2H0 whole entry): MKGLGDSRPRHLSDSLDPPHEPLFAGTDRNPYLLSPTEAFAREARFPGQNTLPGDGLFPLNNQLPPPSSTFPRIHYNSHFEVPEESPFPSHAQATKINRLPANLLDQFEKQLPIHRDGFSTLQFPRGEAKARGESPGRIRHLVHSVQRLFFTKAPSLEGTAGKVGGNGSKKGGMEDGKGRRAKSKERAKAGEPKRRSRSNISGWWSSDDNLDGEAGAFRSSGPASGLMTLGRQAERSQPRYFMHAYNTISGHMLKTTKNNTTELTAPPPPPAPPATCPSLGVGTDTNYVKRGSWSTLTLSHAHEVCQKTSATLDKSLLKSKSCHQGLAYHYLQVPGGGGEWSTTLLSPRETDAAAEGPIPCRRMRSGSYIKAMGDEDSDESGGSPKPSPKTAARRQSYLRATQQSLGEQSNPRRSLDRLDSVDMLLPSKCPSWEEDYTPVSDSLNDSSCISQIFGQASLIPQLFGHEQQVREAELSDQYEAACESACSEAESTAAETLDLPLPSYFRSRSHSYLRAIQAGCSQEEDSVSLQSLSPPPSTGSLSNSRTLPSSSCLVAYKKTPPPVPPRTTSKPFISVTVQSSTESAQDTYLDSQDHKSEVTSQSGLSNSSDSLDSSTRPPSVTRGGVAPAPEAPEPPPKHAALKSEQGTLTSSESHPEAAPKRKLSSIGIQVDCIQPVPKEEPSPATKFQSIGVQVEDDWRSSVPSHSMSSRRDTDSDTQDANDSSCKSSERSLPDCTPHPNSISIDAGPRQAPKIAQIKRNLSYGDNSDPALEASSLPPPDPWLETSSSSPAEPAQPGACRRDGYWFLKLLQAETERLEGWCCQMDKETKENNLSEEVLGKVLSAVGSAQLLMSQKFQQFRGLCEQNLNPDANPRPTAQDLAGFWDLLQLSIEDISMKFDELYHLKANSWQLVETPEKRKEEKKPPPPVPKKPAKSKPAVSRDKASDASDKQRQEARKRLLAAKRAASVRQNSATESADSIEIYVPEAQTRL
UniProt Q09019, sequence (Q09019 whole entry): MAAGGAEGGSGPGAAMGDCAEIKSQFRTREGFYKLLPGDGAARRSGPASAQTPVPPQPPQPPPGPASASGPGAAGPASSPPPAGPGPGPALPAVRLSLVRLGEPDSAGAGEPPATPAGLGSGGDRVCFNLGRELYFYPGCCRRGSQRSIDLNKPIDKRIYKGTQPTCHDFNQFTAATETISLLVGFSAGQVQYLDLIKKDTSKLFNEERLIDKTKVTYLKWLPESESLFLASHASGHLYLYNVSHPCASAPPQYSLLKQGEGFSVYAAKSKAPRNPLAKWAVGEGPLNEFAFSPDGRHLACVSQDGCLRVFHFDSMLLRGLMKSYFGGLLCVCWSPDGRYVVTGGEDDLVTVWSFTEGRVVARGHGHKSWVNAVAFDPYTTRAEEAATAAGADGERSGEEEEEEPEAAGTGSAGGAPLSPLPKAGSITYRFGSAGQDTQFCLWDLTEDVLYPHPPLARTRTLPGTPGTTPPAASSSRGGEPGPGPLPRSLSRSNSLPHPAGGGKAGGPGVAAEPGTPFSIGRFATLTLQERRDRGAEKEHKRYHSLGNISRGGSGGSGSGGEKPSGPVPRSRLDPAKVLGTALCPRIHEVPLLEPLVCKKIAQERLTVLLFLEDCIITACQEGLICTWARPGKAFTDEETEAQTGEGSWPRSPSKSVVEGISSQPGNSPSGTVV
UniProt P25686, sequence (P25686 whole entry): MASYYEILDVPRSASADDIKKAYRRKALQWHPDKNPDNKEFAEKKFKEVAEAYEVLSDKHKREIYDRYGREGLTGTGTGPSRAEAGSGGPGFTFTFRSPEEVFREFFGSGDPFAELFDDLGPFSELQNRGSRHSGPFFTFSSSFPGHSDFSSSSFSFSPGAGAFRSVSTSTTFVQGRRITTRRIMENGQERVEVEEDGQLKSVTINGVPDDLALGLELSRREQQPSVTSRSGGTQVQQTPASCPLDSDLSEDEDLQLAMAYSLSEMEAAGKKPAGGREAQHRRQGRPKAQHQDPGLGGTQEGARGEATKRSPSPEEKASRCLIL
UniProt O75190, sequence (O75190 whole entry): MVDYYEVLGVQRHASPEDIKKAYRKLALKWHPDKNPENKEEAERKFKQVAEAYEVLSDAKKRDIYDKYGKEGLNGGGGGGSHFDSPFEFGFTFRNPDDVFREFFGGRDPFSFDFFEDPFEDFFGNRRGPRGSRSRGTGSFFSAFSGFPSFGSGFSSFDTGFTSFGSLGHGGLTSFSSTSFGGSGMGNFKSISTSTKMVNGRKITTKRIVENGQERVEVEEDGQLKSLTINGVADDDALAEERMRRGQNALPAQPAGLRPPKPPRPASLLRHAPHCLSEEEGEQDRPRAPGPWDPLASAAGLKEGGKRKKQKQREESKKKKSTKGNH
UniProt P36957, sequence (P36957 whole entry): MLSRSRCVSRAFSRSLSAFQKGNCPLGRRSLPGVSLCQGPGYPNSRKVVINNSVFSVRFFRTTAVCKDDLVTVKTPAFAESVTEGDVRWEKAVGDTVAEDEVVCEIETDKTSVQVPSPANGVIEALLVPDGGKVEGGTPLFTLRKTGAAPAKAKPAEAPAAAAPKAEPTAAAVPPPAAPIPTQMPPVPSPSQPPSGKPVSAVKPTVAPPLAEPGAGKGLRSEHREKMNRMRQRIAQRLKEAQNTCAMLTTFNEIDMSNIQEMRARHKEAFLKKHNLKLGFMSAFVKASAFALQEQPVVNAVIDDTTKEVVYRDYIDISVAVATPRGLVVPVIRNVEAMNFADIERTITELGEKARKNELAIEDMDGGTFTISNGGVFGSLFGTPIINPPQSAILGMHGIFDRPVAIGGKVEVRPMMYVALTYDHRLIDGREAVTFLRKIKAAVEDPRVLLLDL

Target	thermal stability z-score (lipoamide; [1])	thermal stability z-score (lipoamide; arsenate co-treatment: none)	thermal stability z-score (potassium arsenate)
DIS3L (UniProt Q8TF46)	0.0339	0.0425	0.0192
DISP1 (UniProt Q96F81)	0.342	0.512	-1.07
DKC1 (UniProt O60832)	0.735	0.39	0.437
DLAT (UniProt P10515)	-2.72	-0.583	-11.2
DLD (UniProt P09622)	0.662	1.04	-0.681
DLG1 (UniProt Q12959)	0.111	-0.207	-0.34
DLG3 (UniProt Q92796)	-0.116	0.02	-0.395
DLG5 (UniProt Q8TDM6)	0.227	-0.0304	0.0056
DLGAP4 (UniProt Q9Y2H0)	-0.0201	-0.367	-2.62
DLGAP5 (UniProt Q15398)	-0.352	-0.378	-0.0873
DLST (UniProt P36957)	0.396	0.38	-5.05
DMAP1 (UniProt Q9NPF5)	-0.551	-0.38	-0.644
DMD (UniProt P11532)	0.0264	-0.124	-0.176
DMWD (UniProt Q09019)	0.459	-0.167	0.407
DMXL1 (UniProt Q9Y485)	0.485	0.00841	-0.0177
DMXL2 (UniProt Q8TDJ6)	-0.191	-0.105	0.00642
DNA2 (UniProt P51530)	-0.0519	-0.0211	-0.131
DNAAF2 (UniProt Q9NVR5)	-0.15	-0.168	-0.268
DNAAF5 (UniProt Q86Y56)	-0.979	0.336	0.875
DNAH1 (UniProt Q9P2D7)	-0.00768	0.171	0.0212
DNAJA1 (UniProt P31689)	-1.05	-0.818	-0.452
DNAJA2 (UniProt O60884)	-0.922	-1.05	-0.26
DNAJA3 (UniProt Q96EY1)	-1.12	-0.564	0.258
DNAJB1 (UniProt P25685)	0.448	0.397	0.294
DNAJB2 (UniProt P25686)	0.422	0.0161	0.142
DNAJB4 (UniProt Q9UDY4)	-0.368	-0.146	-0.708
DNAJB6 (UniProt O75190)	1.19	0.248	0.728
DNAJB11 (UniProt Q9UBS4)	-2.65	-2.51	0.319
